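Assay format: 96-well plates, 48-hour exposure. At the GI50, growth is halved.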 Active and inactive are the calls of the source. Rule as the data show it: active = GI50 up to about 1.1 µM and inactive = higher.
Tests used:
Assay in all cases: inhibition of tumour cell growth, NCI panel, 48 h
UACC-257 = tested on: UACC-257
MDA-MB-435 = tested on: MDA-MB-435
EKVX = tested on: EKVX
SN12C = tested on: SN12C
HL-60 = tested on: HL-60
M14 = tested on: M14
BT-549 = tested on: BT-549
HOP-92 = tested on: HOP-92
SK-MEL-5 = tested on: SK-MEL-5
NCI-H23 = tested on: NCI-H23
K562 = tested on: K562
DU-145 = tested on: DU-145
MOLT-4 = tested on: MOLT-4
A549 = tested on: A549
MCF7 = tested on: MCF7
U-251 = tested on: U-251
TK-10 = tested on: TK-10
SK-MEL-28 = tested on: SK-MEL-28
SR = tested on: SR
SF-295 = tested on: SF-295

| SMILES | GI50 (UACC-257) | GI50 (MDA-MB-435) | GI50 (EKVX) | GI50 (SN12C) | GI50 (HL-60) | GI50 (M14) | GI50 (BT-549) | GI50 (HOP-92) | GI50 (SK-MEL-5) | GI50 (NCI-H23) | GI50 (K562) | GI50 (DU-145) | GI50 (MOLT-4) | GI50 (A549) | GI50 (MCF7) | GI50 (U-251) | GI50 (TK-10) | GI50 (SK-MEL-28) | GI50 (SR) | GI50 (SF-295) |
| --- | --- | --- | --- | --- | --- | --- | --- | --- | --- | --- | --- | --- | --- | --- | --- | --- | --- | --- | --- | --- |
| COc1ccc(N2C(=O)/C(=C\c3cccc(Oc4ccccc4)c3)S(=O)(=O)C2c2ccccc2)cc1 (configuration not stated) | 26.1 µM (inactive) | 19.8 µM (inactive) | 15.7 µM (inactive) | 66.4 µM (inactive) | 7.24 µM (inactive) | 38.8 µM (inactive) | 25.6 µM (inactive) | 42.2 µM (inactive) | 16.3 µM (inactive) | 28.4 µM (inactive) | 16.4 µM (inactive) | 38.3 µM (inactive) | 0.146 µM (active) | 31.5 µM (inactive) | 26 µM (inactive) | 50.7 µM (inactive) | 37.1 µM (inactive) | > 100 µM (inactive) | 3.7 µM (inactive) |  |
| COC1(OC)CC(CO)(CNc2nc(N)nc(Cl)c2/C=N\O)C1 | 27.7 µM (inactive) | 31.5 µM (inactive) | 22.7 µM (inactive) | 87.7 µM (inactive) | 39.3 µM (inactive) |  | 25.3 µM (inactive) | 13.6 µM (inactive) | 43.1 µM (inactive) | 9.77 µM (inactive) | 17.7 µM (inactive) | 34.3 µM (inactive) | 15.3 µM (inactive) | 59.7 µM (inactive) | 24.1 µM (inactive) | 43.7 µM (inactive) | 25.9 µM (inactive) | 48.9 µM (inactive) | 13.4 µM (inactive) | 33.3 µM (inactive) |
| O=C(Nc1nc(C23CC4CC(CC(C4)C2)C3)cs1)c1c(O)c2ccccc2[nH]c1=O | > 100 µM (inactive) | > 100 µM (inactive) | > 100 µM (inactive) | > 100 µM (inactive) | > 100 µM (inactive) |  | > 100 µM (inactive) | > 100 µM (inactive) | > 100 µM (inactive) | > 100 µM (inactive) | > 100 µM (inactive) | > 100 µM (inactive) | > 100 µM (inactive) | > 100 µM (inactive) | > 100 µM (inactive) | > 100 µM (inactive) | > 100 µM (inactive) | > 100 µM (inactive) | > 100 µM (inactive) | > 100 µM (inactive) |
| O=C1c2ccccc2-c2nc(-c3cccs3)cc3c2c1nc1ccccc13 | 14.1 µM (inactive) | 2.01 µM (inactive) | 98.2 µM (inactive) | > 100 µM (inactive) | 5.42 µM (inactive) | 3.27 µM (inactive) | 22 µM (inactive) | > 100 µM (inactive) |  | 11.9 µM (inactive) | 13.5 µM (inactive) | 14.1 µM (inactive) | 37.1 µM (inactive) | 9.29 µM (inactive) | 13 µM (inactive) | 18.6 µM (inactive) | > 100 µM (inactive) | 17.5 µM (inactive) | 6.21 µM (inactive) | 27.8 µM (inactive) |
| OC(c1cc2ccc(C(F)(F)F)cc2c2cc(C(F)(F)F)ccc12)C1CCCCN1 (configuration not stated) | 1.56 µM (inactive) | 1.48 µM (inactive) | 0.428 µM (active) | 1.74 µM (inactive) | 31.4 µM (inactive) | 1.88 µM (inactive) | 1.92 µM (inactive) | 1.74 µM (inactive) | 1.56 µM (inactive) | 1.66 µM (inactive) | 1.55 µM (inactive) | 1.8 µM (inactive) | 1.41 µM (inactive) | 1.8 µM (inactive) | 1.81 µM (inactive) | 1.71 µM (inactive) | 1.73 µM (inactive) | 1.91 µM (inactive) | 2.38 µM (inactive) |  |
| CCN1CC2(COC)C(O)CC(OC)C34C5CC6(O)C(OC)C=C(C5C6OC(=O)c5ccc(OC)c(OC)c5)C(C(OC)C23)C14 (configuration not stated) | > 7.5 µM (inactive) | > 7.5 µM (inactive) | > 7.5 µM (inactive) | > 7.5 µM (inactive) | > 7.5 µM (inactive) | > 7.5 µM (inactive) | > 7.5 µM (inactive) | > 7.5 µM (inactive) | > 7.5 µM (inactive) | > 7.5 µM (inactive) | > 7.5 µM (inactive) | > 7.5 µM (inactive) |  | > 7.5 µM (inactive) | > 7.5 µM (inactive) | > 7.5 µM (inactive) | > 7.5 µM (inactive) | > 7.5 µM (inactive) | > 7.5 µM (inactive) | > 7.5 µM (inactive) |
| C[C@]12C(=O)OC[C@H](c3ccccc3)N1C(=O)N(Cc1ccccc1)[C@@H]2CO | > 100 µM (inactive) | > 100 µM (inactive) | > 100 µM (inactive) | > 100 µM (inactive) | > 100 µM (inactive) | > 100 µM (inactive) | > 100 µM (inactive) | > 100 µM (inactive) | > 100 µM (inactive) |  | > 100 µM (inactive) | > 100 µM (inactive) | > 100 µM (inactive) | > 100 µM (inactive) | > 100 µM (inactive) |  | > 100 µM (inactive) | > 100 µM (inactive) | > 100 µM (inactive) | > 100 µM (inactive) |
| O=C(CN1C(=O)c2ccccc2C1=O)C(O)CN1C(=O)c2ccccc2C1=O (configuration not stated) | > 100 µM (inactive) | 34.1 µM (inactive) | 76.2 µM (inactive) | 53.5 µM (inactive) | 44.7 µM (inactive) | > 100 µM (inactive) | 48.1 µM (inactive) | 32.4 µM (inactive) | > 100 µM (inactive) | 26.9 µM (inactive) |  | 47.2 µM (inactive) | > 100 µM (inactive) | > 100 µM (inactive) | > 100 µM (inactive) | 29.1 µM (inactive) | 46.1 µM (inactive) | > 100 µM (inactive) | > 100 µM (inactive) | 31.3 µM (inactive) |
| CCOC(=O)C1C(=O)CC(C)(O)C(C(=O)OCC)C1c1ccc(N(C)C)cc1 (configuration not stated) | > 100 µM (inactive) | > 100 µM (inactive) | > 100 µM (inactive) | > 100 µM (inactive) | > 100 µM (inactive) |  | > 100 µM (inactive) | > 100 µM (inactive) | > 100 µM (inactive) | > 100 µM (inactive) | > 100 µM (inactive) | > 100 µM (inactive) | > 100 µM (inactive) | > 100 µM (inactive) | > 100 µM (inactive) | > 100 µM (inactive) | > 100 µM (inactive) | > 100 µM (inactive) | > 100 µM (inactive) | > 100 µM (inactive) |
| Nc1ncnc2ccc(Sc3ccc4ncnc(N)c4c3)cc12 | > 100 µM (inactive) | > 100 µM (inactive) | > 100 µM (inactive) | > 100 µM (inactive) | > 100 µM (inactive) | > 100 µM (inactive) | > 100 µM (inactive) | 71.3 µM (inactive) | > 100 µM (inactive) |  | > 100 µM (inactive) | > 100 µM (inactive) | > 100 µM (inactive) | > 100 µM (inactive) | > 100 µM (inactive) | > 100 µM (inactive) | > 100 µM (inactive) | > 100 µM (inactive) | > 100 µM (inactive) | > 100 µM (inactive) |
| CCC1(O)C(=O)OCc2c1cc1n(c2=O)Cc2cc3cc(N)ccc3nc2-1 (configuration not stated) |  | 0.0241 µM (active) | 0.855 µM (active) | < 0.01 µM (active) | < 0.01 µM (active) | < 0.01 µM (active) | < 0.01 µM (active) | 0.0535 µM (active) | < 0.0136 µM (active) | < 0.01 µM (active) | < 0.0127 µM (active) | < 0.01 µM (active) | < 0.01 µM (active) | 0.0103 µM (active) | < 0.01 µM (active) | < 0.01 µM (active) | 1.9 µM (inactive) |  | < 0.01 µM (active) | < 0.01 µM (active) |

From ChEMBL document CHEMBL1201862, “PubChem BioAssay data set” (2004)
